The text below walks through data of patent US20060206946A1, “Method of disrupting heme transport in nematodes and of modelling and evaluating eukaryotic heme transport” (priority 2005, published 2006).

The test system of the experiment is C. elegans. It counts as in vivo, Caenorhabditis elegans. The note with it: pulse 40 μM ZnMP 3 h. The protocol: (C) Fluorescent metabolic labeling of worms with either 40 μM hemin (images 1, 4) or 40 μM ZnMP/4 μM hemin (images 2, 3, 5, 6) for 3 h followed by confocal microscopy with a 546 laser (images 1-3) and DIC optics (images 4-6). Arrowheads indicate ZnMP fluorescence accumulation within intestinal cells and developing embryos. For clarity, the boxed image in 2 is magnified in images 3 and 6. (Bar=100 μm).
(D) Worms were incubated with 40 μM ZnMP/4 μM hemin for 16 h followed by a chase with 40 μM hemin. Worms were analyzed by epifluorescence microscopy (TRITC channel) and DIC optics. Experiments were performed either in the absence (images 1-4) or presence (images 5-8) of NaN3 during the chase periods to test for the non-specific loss of ZnMP fluorescence. Photomicrograph 4 is shown at a lower power to depict the complete loss of ZnMP fluorescence. (Bar=100 μm). For (C) and (D), four separate experiments were performed with a minimum of 50 worms per data point per experiment. The data are representative for >90% of worms analyzed.
Because of the nature of the growth curve, we reasoned that heme homeostatis in C. elegans may be regulated in accordance with organismic needs and metabolic demands. […]
Pulse-Chase Analysis. […] At timed intervals, aliquots of worms were removed into the appropriate medium containing 10 mM NaN3 mounted on a slide and immediately analyzed with a 543 He/Ne laser on a Zeiss 410 confocal microscope, or with a Peltier-cooled Retiga 1300 12-bit CCD camera fitted on to a Leica DMIRE2 autofluorescence/DIC microscope. Images were further analyzed with SIMPLEPCI v5.2 Software (Compix, Inc.). […] No loss of fluorescence was observed when labeling experiments were performed in parallel in the presence of 1 mM NaN3 during the chase period and when worms were incubated in medium without hemin. To account for background autouluorescence in C. elegans, the sensor gain of the CCD camera or the laser was set to subtract any fluorescence obtained from control worms incubated in the presence of 40 μM hemin.

Bounds are passed on as bounds.

Regarding hemin chloride, the “hemin concentration of growth medium giving dramatic decline in ZnMP fluorescence” value is not below 100 µM and the “hemin concentration of growth medium giving robust uptake of fluorescent ZnMP” value was not above 20 µM.
